Test results reported in patent US20080293583A1, “Methods for diagnosing mood disorders” (Wyeth, priority 2003, published 2008).

Assays:
Assay type in all cases: in vivo
[1] = test system: Fatty Acid-Binding Protein, Heart (H-FABP); experiment: 2-DE proteome analysis of rat hippocampus: H-FABP; conditions: rat hippocampus cytosolic extract, 10 mg/kg i.p. daily 14 days, vs control; gel spot 89
Procedure: (§1) Animal dosing. Adult male Sprague Dawley rats weighing 230-320 g were housed with ad libitum access to food and water. After 1 week of habituation, rats were administered either an antidepressant or vehicle alone. The following drugs were administered intraperitoneally (i.p.): fluoxetine (10 mg/kg daily), venlafaxine (10 mg/kg daily) or vehicle alone (1 ml/kg normal saline daily) for 14 days (n=3 rats per group).
(§2) Sample preparation and cytosolic protein extraction. The animals were euthanized and hippocampi were rapidly dissected from the whole brain. Samples from each treatment group were pooled and stored at −85° C. Cytosolic extracts were prepared using the universal extraction kit from Sigma (prot-two) as follows: soluble cytoplasmic extraction reagent (S2688) was added to the hippocampal tissue (10 ml/250 mg wet weight). […]
(§3) Two-dimensional gel electrophoresis. […] Molecular masses were determined by running standard protein markers (Genomic Solutions Inc.), covering the range 10-200 kDa as well as internal verification via landmark proteins within the gel. […]
(§4) Protein fixation, silver staining and 2-D gel comparisons. […] Protein spots were outlined (first automatically and then manually) and quantified using the HT analyzer v2.2 software (Genomic Solutions Inc.). The software calculated the relative spot volume of the proteins compared with the total amount of protein in the gel. […]

[2] = test system: Hippocampal Cholinergic Neurostimulating peptide (PEBP; HCNP; Raf kinase inhibitor protein); experiment: 2-DE proteome analysis of rat hippocampus: HCNP; conditions: rat hippocampus cytosolic extract, 10 mg/kg i.p. daily 14 days, vs control; gel spot 60
Procedure: as §1, §2, §3, §4

[3] = test system: Proteasome subunit alpha type 2 (Multicatalytic endopeptidase complex subunit C3); experiment: 2-DE proteome analysis of rat hippocampus: Proteasome subunit alpha type 2; conditions: rat hippocampus cytosolic extract, 10 mg/kg i.p. daily 14 days, vs control
Procedure: as §1
(§5) Sample preparation and cytosolic protein extraction. The animals were euthanized and hippocampi were rapidly dissected from the whole brain. Samples from each treatment group were pooled and stored at −85° C. Cytosolic extracts were prepared using the universal extraction kit from Sigma (prot-two) as follows: soluble cytoplasmic extraction reagent (S2688) was added to the hippocampal tissue (10 ml/250 mg wet weight). Samples were sonicated (4 times at 30 seconds) and centrifuged for 45 minutes (14,000 g) at 4° C. The supernatant was decanted and stored on ice. Ten milliliters of the soluble cytoplasmic extraction reagent was added to the remaining pellet and the sonication and centrifugation steps were repeated. The supernatant was decanted, combined with the previous supernatant and SpeedVac (Savant Instruments, Halbrook, N.Y.) dried. Each sample was dissolved in 2 ml of 2-D lysis buffer (6 M urea, 2 M thiourea, 4% CHAPS, 40 mM Tris, 65 mM dithiothreitol (DTT), 1 mM sodium vanadate, 1 mM sodium fluoride, protease inhibitor tablet (#1836145, Roche)), concentrated and desalted (Centricon tube; 6500 rpm) at 10° C. for 12 hours.
Two-dimensional gel electrophoresis. First dimensional isoelectric focusing (IEF) was performed on 18 cm IPG strips (pH 4-7) using an IPGphor unit (Amersham Pharmacia). Each strip was rehydrated for 16 hours with sample lysate (˜500 ug) in a final volume of 400 uL of IEF solution (10 uL of bromophenol blue (0.25% w/v); 2 uL of Ampholyte (pH 4-7, Amersham #17-6000-86); 2-D lysis buffer). […] The strips were then subjected to a two-step equilibration (50 mM Tris; 2% SDS; 30% glycerol) in (A) 0.5% DTT (Bio-Rad) and (B) 4.5% iodoacetamide (Sigma) buffers before proceeding to SDS-PAGE. […] Molecular masses were determined by running standard protein markers (Genomic Solutions Inc.), covering the range 10-200 kDa as well as internal verification via landmark proteins within the gel. […]
as §4

[4] = test system: Ras-related protein RAB-1B; experiment: 2-DE proteome analysis of rat hippocampus: RAB-1B; conditions: rat hippocampus cytosolic extract, 10 mg/kg i.p. daily 14 days, vs control; gel spot 90 (mix)
Procedure: as §1, §2, §3, §4

[5] = test system: Hydroxysteroid sulfotransferase A (Androsterone-sulfating sulfotransferase); experiment: 2-DE proteome analysis of rat hippocampus: Hydroxysteroid sulfotransferase A; conditions: rat hippocampus cytosolic extract, 10 mg/kg i.p. daily 14 days, vs control; gel spot 79
Procedure: as §1, §2, §3, §4

[6] = test system: Transcription Initiation factor IIA Gamma Chain; experiment: 2-DE proteome analysis of rat hippocampus: TFIIA Gamma Chain; conditions: rat hippocampus cytosolic extract, 10 mg/kg i.p. daily 14 days, vs control; gel spot 88
Procedure: as §1, §2, §3, §4

[7] = test system: Cytochrome C oxidase polypeptide VB, mitochondrial precursor (COX5B); experiment: 2-DE proteome analysis of rat hippocampus: COX5B; conditions: rat hippocampus cytosolic extract, 10 mg/kg i.p. daily 14 days, vs control; gel spot 86
Procedure: as §1, §2, §3, §4

[8] = test system: L-Lactate Dehydrogenase B Chain; experiment: 2-DE proteome analysis of rat hippocampus: L-Lactate Dehydrogenase B Chain; conditions: rat hippocampus cytosolic extract, 10 mg/kg i.p. daily 14 days, vs control; gel spot 23
Procedure: as §1, §2, §3, §4

Alpha-enolase = experiment: 2-DE proteome analysis of rat hippocampus: Alpha-enolase; conditions: rat hippocampus cytosolic extract, 10 mg/kg i.p. daily 14 days, vs control; for Fold change, Alpha-enolase (spot 8): gel spot 8; for Fold change, Alpha-enolase (spot 9): gel spot 9; for Fold change, Alpha-enolase (spot 10): gel spot 10
Procedure: as §1, §5
Two-dimensional gel electrophoresis. First dimensional isoelectric focusing (IEF) was performed on 18 cm IPG strips (pH 4-7) using an IPGphor unit (Amersham Pharmacia). Each strip was rehydrated for 16 hours with sample lysate (˜500 ug) in a final volume of 400 uL of IEF solution (10 uL of bromophenol blue (0.25% w/v); 2 uL of Ampholyte (pH 4-7, Amersham #17-6000-86); 2-D lysis buffer). […] The strips were then subjected to a two-step equilibration (50 mM Tris; 2% SDS; 30% glycerol) in (A) 0.5% DTT (Bio-Rad) and (B) 4.5% iodoacetamide (Sigma) buffers before proceeding to SDS-PAGE. Separation in the second dimension was performed on 10% SDS polyacrylamide gels (180×1.5 mm) at a constant voltage of 500 V at 15° C. for 28 hours using an Investigator 2D electrophoresis unit (Genomic Solutions Inc., MA) which accommodated 10 gels. Molecular masses were determined by running standard protein markers (Genomic Solutions Inc.), covering the range 10-200 kDa as well as internal verification via landmark proteins within the gel. The pl values were used as given by the supplier of the immobilized pH-gradient strips.
Protein fixation, silver staining and 2-D gel comparisons. Silver staining of the gels was performed using a silver stain kit (gs#80-0183; Genomic Solutions). All steps were performed at room temperature, gently agitating the trays on a rotary shaker at low speed. Stained gels were scanned using an 8-bit ccd camera and the Investigator G3 ProPic system (Genomic Solutions Inc.). Protein spots were outlined (first automatically and then manually) and quantified using the HT analyzer v2.2 software (Genomic Solutions Inc.). The software calculated the relative spot volume of the proteins compared with the total amount of protein in the gel. The HT analyzer software was used to cross-match (‘synchronize’) and identify protein spots between control gels and drug treatment gels that were different in integrated intensity by at least a factor of 1.5 versus control. […] This population of spots were automatically picked from each gel with the ProPic system for in-gel trypsin digestion.
Enzymatic digestion of protein spots. Silver-stained protein spots were automatically excised and transferred to a 96-well polypropylene microtiter plate. Each excised spot was de-stained to remove the silver ions and enhance sensitivity with 30 mM potassium ferricyanide and 100 mM sodium thiosulfate (1:1 ratio). […]

[9] = test system: Antioxidant protein 2 (calcium-independent PLA2); experiment: 2-DE proteome analysis of rat hippocampus: Antioxidant protein 2; conditions: rat hippocampus cytosolic extract, 10 mg/kg i.p. daily 14 days, vs control; gel spot 51
Procedure: as §1, §2, §3, §4

[10] = test system: Probasin precursor (lipocalin family member); experiment: 2-DE proteome analysis of rat hippocampus: Probasin precursor; conditions: rat hippocampus cytosolic extract, 10 mg/kg i.p. daily 14 days, vs control; gel spot 70
Procedure: as §1, §2, §3, §4

[11] = test system: Ras-related protein RAB-4A; experiment: 2-DE proteome analysis of rat hippocampus: RAB-4A; conditions: rat hippocampus cytosolic extract, 10 mg/kg i.p. daily 14 days, vs control; gel spot 90 (mix)
Procedure: as §1, §2, §3, §4

IGF-1 A precursor = experiment: 2-DE proteome analysis of rat hippocampus after antidepressant treatment: IGF-1 A precursor; conditions: rat hippocampus cytosolic extract, 10 mg/kg i.p. daily 14 days, vs control; gel spot 87
Procedure: as §1, §2, §3, §4

[12] = test system: GLIA maturation factor beta (GMF-β); experiment: 2-DE proteome analysis of rat hippocampus: GMF-β; conditions: rat hippocampus cytosolic extract, 10 mg/kg i.p. daily 14 days, vs control; gel spot 67
Procedure: as §1, §2, §3, §4

| SMILES | Fold change, Fatty Acid-Binding Protein, Heart (H-FABP) [1] | Fold change, Hippocampal Cholinergic Neurostimulating peptide (PEBP; HCNP) [2] | Fold change, Proteasome subunit alpha type 2 ([3]; gel spot 27) | Fold change, Proteasome subunit alpha type 2 ([3]; gel spot 27, listed as fluoxetine) | Fold change, Ras-related protein RAB-1B [4] | Fold change, Hydroxysteroid sulfotransferase A [5] | Fold change, Transcription Initiation factor IIA Gamma Chain [6] | Fold change, Cytochrome C oxidase polypeptide VB (COX5B) [7] | Fold change, L-Lactate Dehydrogenase B Chain [8] | Fold change, Alpha-enolase (spot 8) (Alpha-enolase) | Fold change, Alpha-enolase (spot 9) (Alpha-enolase) | Fold change, Alpha-enolase (spot 10) (Alpha-enolase) | Fold change, Antioxidant protein 2 [9] | Fold change, Probasin precursor [10] | Fold change, Ras-related protein RAB-4A [11] | Fold change, IGF-1 A precursor (IGF-1 A precursor) | Fold change, GLIA maturation factor beta (GMF-β) [12] | Fold change, Proteasome subunit alpha type 2 ([3]; gel spot 27, listed as venlafaxine) |
| --- | --- | --- | --- | --- | --- | --- | --- | --- | --- | --- | --- | --- | --- | --- | --- | --- | --- | --- |
| CNCCC(Oc1ccc(C(F)(F)F)cc1)c1ccccc1 (stereo not shown) [Fluoxetine, fluoxetine] | 1.6 Fold change | 1.9 Fold change | 6.1 Fold change | 6 Fold change | 1.5 Fold change | 2 Fold change | 2.5 Fold change | 3.2 Fold change | 2.5 Fold change | 3.4 Fold change | 5 Fold change | 3 Fold change | 1.6 Fold change | 2.7 Fold change | 1.5 Fold change | 2.5 Fold change | 3 Fold change | – |
| COc1ccc(C(CN(C)C)C2(O)CCCCC2)cc1 (stereo not shown) [Venlafaxine, venlafaxine] | 2.1 Fold change | 2 Fold change | 10.6 Fold change | – | 1.5 Fold change | 2 Fold change | 2.4 Fold change | 4 Fold change | 2.5 Fold change | 2 Fold change | 4.8 Fold change | 4.1 Fold change | 1.7 Fold change | 2.7 Fold change | 1.5 Fold change | 2.9 Fold change | 2.7 Fold change | 10 Fold change |
